Results published in patent US7314937B2, “Non-imidazole aryl alkylamines compounds as histamine H3 receptor antagonists, preparation and therapeutic uses” (Eli Lilly and Company, priority 2002, dated 2008).
Like-named read-outs stand apart in the source and are kept apart here.

Assays:
[1] = molecular target: T1, human histamine 3 receptor (H3R) (Homo sapiens, UniProt Q9Y5N1); test: Competitive inhibition SPA radioligand binding assay, H3R
T1 construct: expressed in transfected cells; membranes
T1 sequence (Q9Y5N1 whole entry): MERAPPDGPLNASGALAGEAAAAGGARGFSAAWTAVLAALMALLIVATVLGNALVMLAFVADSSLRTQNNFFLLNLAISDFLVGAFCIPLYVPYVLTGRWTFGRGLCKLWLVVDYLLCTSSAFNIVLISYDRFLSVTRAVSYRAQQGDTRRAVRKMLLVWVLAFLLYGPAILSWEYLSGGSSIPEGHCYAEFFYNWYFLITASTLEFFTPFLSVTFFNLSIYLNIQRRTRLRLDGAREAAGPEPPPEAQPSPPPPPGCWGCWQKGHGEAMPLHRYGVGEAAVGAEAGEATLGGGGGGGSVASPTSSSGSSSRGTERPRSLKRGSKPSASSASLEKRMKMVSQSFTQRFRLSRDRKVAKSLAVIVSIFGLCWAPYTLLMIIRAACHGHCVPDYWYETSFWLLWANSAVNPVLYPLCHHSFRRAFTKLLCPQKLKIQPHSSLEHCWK
Text: The inventive compounds can readily be evaluated by using a competitive inhibition Scintillation Proximity Assay (SPA) based on a H3R binding assay using [3H] a methylhistamine as ligand. Stable cell lines, including but not limited to HEK can be transfected with cDNA coding for H3R to prepare membranes used for the binding assay. The technique is illustrated below (Example 3) for the histamine receptor subtypes.
C. Preparation of H3R Membranes
(§1) cDNA for the human histamine 3 receptor was cloned and expressed as described in Example 1, above. Transfected cells were selected using G418 ([…]), grown, and tested for histamine binding by the SPA described above. For total binding, cells were assayed in a SPA reaction described above containing 50 mM Tris-HCL (assay buffer), pH 7.6, 1 mg wheat germ agglutinin SPA beads (Amersham Pharmacia Biotech, #RPNQ0001), and 1 nM (^3H)-n-alpha-methylhistamine (NEN, NET1027) (total volume per well=200 μl). Thioperimide was added to determine non-specific binding. Several clones were selected as positive for binding, and a single clone (H3R8) was used to prepare membranes for binding studies described above. Five micrograms of protein was used per well in the SPA receptor-binding assay.
To investigate the selectivity of the antagonists for the histamine receptors, a competitive binding assay described above was performed. […]

[2] = molecular target: T2, human histamine 2 receptor (Homo sapiens, UniProt P25021); test: Competitive SPA binding assay, H2R, 3H-tiotidine; details: selectivity study Table 2, read-out: Ki (nM) H2
T2 construct: expressed in transfected cells; membranes
T2 sequence (P25021 whole entry): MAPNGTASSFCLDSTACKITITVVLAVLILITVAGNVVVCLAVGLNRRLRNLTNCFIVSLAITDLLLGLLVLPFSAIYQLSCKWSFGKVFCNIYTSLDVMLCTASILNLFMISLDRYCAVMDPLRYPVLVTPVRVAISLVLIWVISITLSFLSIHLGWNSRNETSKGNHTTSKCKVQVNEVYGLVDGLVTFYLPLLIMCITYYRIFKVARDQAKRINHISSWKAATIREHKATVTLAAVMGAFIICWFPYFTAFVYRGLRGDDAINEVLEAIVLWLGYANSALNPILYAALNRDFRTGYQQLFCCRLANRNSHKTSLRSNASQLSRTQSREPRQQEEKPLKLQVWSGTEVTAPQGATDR
Experimental: B. Preparation H2R Membranes
cDNA for the human histamine 2 receptor was cloned, expressed and transfected into HEK 293 cells as described above. Histamine binding to cells was assayed by SPA described above. For total binding, cells were assayed in a SPA reaction containing 50 mM Tris-HCl (assay buffer), pH 7.6, 1 mg wheat germ agglutinin SPA beads (Amersham Pharmacia Biotech, #RPNQ0001), and 6.2 nM ^3H-tiotidine (Net-688, NEN) (total volume per well=200 μl). Cimetidine (10 μM, Sigma #C4522) was added to appropriate wells to determine non-specific binding.
Several clones were selected as positive for binding, and a single clone (H2R10) was used to prepare membranes for binding studies. Five micrograms of protein was used per well in the SPA receptor-binding assay.
(§2) To investigate the selectivity of the antagonists for the histamine receptors, a competitive binding assay described above was performed. […] Until the present invention, most known H3R antagonists also bound H4R.

[3] = Rat pharmacokinetics, iv and po, LC/MS/MS; format: in vivo, Male Sprague Dawley Rats; details: 10 mg/kg po; for oral bioavailability (AUC 0-24 hr; po/iv ratio): 3 mg/kg iv; for half-life: male, Sprague Dawley, read-out: oral half-life (±SEM) (converted)
Experimental: Non-imidazole containing histamine H3 receptor antagonists disclosed in the literature generally have very poor pharmacokinetic properties (see J. Apelt, et al, J. Med. Chem. 2002,45,1128-1141). […] Male Sprague Dawley Rats (n=3 per dose arm) were separately dosed with 3 mg/kg iv or 10 mg/kg po of compound examples 131 and 271 (vehicle: 5% ethanol/water or water respectively; dose volume: 1 mL/kg iv, 10 mL/kg po). Approximately 0.5 mL of blood was collected in heparin collection tubes at multiple time points over an 8 or 24-hour period for examples 131 and 271 respectively, and the samples were analyzed using LC/MS/MS.

[4] = molecular target: T3, human histamine 1 receptor (H1R) (Homo sapiens, UniProt P35367); test: Competitive SPA binding assay, H1R, 3H-pyrilamine; details: selectivity study Table 2
T3 construct: expressed in transfected cells; membranes
T3 sequence (P35367 whole entry): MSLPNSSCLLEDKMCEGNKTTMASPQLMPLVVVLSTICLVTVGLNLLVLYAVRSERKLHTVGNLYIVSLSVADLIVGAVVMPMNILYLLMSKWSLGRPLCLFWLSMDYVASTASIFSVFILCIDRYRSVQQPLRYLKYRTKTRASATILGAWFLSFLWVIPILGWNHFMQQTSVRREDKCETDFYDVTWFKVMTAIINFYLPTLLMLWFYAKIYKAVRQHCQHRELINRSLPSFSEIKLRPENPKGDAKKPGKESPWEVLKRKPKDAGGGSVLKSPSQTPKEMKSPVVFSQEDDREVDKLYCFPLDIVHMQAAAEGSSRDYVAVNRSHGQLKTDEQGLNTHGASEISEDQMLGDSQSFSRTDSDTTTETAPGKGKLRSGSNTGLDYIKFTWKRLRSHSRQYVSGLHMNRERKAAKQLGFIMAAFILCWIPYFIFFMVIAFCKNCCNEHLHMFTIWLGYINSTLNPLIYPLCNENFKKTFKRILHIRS
Experimental: A. Preparation H1R Membranes
cDNA for the human histamine 1 receptor (H1R) was cloned into a mammalian expression vector containing the CMV promoter (pcDNA3.1 (+), Invitogen) and transfected into HEK293 cells using the FuGENE Tranfection Reagent (Roche Diagnostics Corporation). Transfected cells were selected using G418 (500 μ/ml). Colonies that survived selection were grown and tested for histamine binding to cells grown in 96-well dishes using a scintillation proximity assay (SPA) based radioligand binding assay. Briefly, cells, representing individual selected clones, were grown as confluent monolayers in 96-well dishes (Costar Clear Bottom Plates, #3632) by seeding wells with 25,000 cells and growing for 48 hours (37° C., 5% CO2). Growth media was removed and wells were rinsed two times with PBS (minus Ca^2+ or Mg^2+). For total binding, cells were assayed in a SPA reaction containing 50 mM Tris-HCL (assay buffer), pH 7.6, 1 mg wheat germ agglutinin SPA beads (Amersham Pharmacia Biotech, #RPNQ0001), and 0.8 nM ^3H-pyrilamine (Net-594, NEN) (total volume per well=200 μl). Astemizole (10 μM, Sigma #A6424) was added to appropriate wells to determine non-specific binding. Plates were covered with FasCal and incubated at room temperature for 120 minutes. […] Plates were counted in a Wallac Trilux 1450 Microbeta scintillation counter. […]

[5] = molecular target: T4, human GPRv53 receptor (H4R) (Homo sapiens, UniProt Q9H3N8); test: Competitive binding assay, GPRv53 (H4R), [3H]histamine; details: for inhibition of binding to H4R compared to H3R: in words; for Ki: selectivity study Table 2
T4 construct: expressed in transfected cells; host or cells: HEK293 GPRv53 50 cells; homogenised whole-cell lysates
Experimental: D. Preparation of GPRv53 Membranes
cDNA for the human GPRv53 receptor was cloned and expressed as described in Example 1, above. Transfected cells were selected, tested for histamine binding, and selected. HEK293 GPRv53 50 cells were grown to confluency in DMEM/F12 (Gibco) supplemented with 5% FBS and 500 ug/ml G418 and washed with Delbecco's PBS (Gibco) and harvested by scraping. Whole cells were homogenized with a Polytron tissuemizer in binding buffer, 50 mM Tris pH 7.5. Cell lysates, 50 ug, were incubated in 96 well dishes with 3 nM (3H) Histamine and compounds in binding buffer for 2 hours at room temperature. Lysates were filtered through glass fiber filters (Perkin Elmer) with a Tomtec cell harverster. Filters were counted with melt-on scintillator sheets (Perkin Elmer) in a Wallac Trilux 1450 Microbeta Scintillation counter for 5 minutes.
as §2

[6] = molecular target: T5, H3R membranes (H3R8-expressing HEK293 cell line) (Homo sapiens, UniProt Q9Y5N1); test: [35S]GTPγS binding assay (antagonist inhibition of agonist-stimulated binding); format: biochemical; details: inhibition of [35S]GTPγS binding to H3R membranes in presence of agonist R(-) alpha methylhistamine
T5 construct: expressed in transfected cells; membranes
T5 sequence (Q9Y5N1 whole entry): as the sequence (Q9Y5N1 whole entry) above
Experimental: Membranes isolated as described in Example 3 were used in a [^35S]GTPχS functional assay. Binding of [^35S]GTPχS to membranes indicates agonist activity. Compounds of the invention of Formula I were tested for their ability to inhibit binding in the presence of agonists. Alternately, the same transfected cell lines were used for a cAMP assay wherein H3R agonists inhibited forskolin-activated synthesis of cAMP. Compounds of Formula I were tested for their ability to permit forskolin-stimulated cAMP synthesis in the presence of agonist.
as §1, with “Several clones were selected as positive for binding, and a single clone (H3R8) was used to prepare membranes for binding studies described above. Five micrograms of protein was used per well in the SPA receptor-binding assay.” left out
Antagonist activity of selected compounds was tested for inhibition of [^35S] […] Plates were counted in Wallac Trilux 1450 Microbeta scintillation counter for 1 minute. […]

| Ki ([1]; competitive binding, selectivity study Table 2, read-out: Ki (nM) H3R) | half-life ([3]; blood) | Ki [6] | Structure (SMILES) | Ki [2] | oral bioavailability (AUC 0-24 hr; po/iv ratio) [3] | Ki [4] | inhibition of binding to H4R compared to H3R [5] | Ki [5] | Ki [1] | half-life ([3]; in vivo) |
| --- | --- | --- | --- | --- | --- | --- | --- | --- | --- | --- |
| 1.05 nM | 10.4 ± 4.2 h | – | O=C(c1ccc(OCCN2CCCCC2)cc1)N1CCC[C@H]1CN1CCCC1 [Example 131] | ≥ 20000 nM | 58% | ≥ 20000 nM | did not inhibit binding H4R | ≥ 20000 nM | – | – |
| – | – | – | CCN1CCc2cc(OCCCN3CCCCC3)ccc2C1.Cl.Cl [Example 250, 2-Ethyl-6-(3-piperidin-1-yl-propoxy)-1,2,3,4-tetrahydro-isoquinoline dihydrochloride] | 1110 nM | – | 1020 nM | did not inhibit binding H4R | ≥ 20000 nM | 0.37 nM | – |
| – | – | – | CCN1CCc2ccc(OCCCN3CCCCC3)cc2C1.Cl.Cl [Example 271, 2-Ethyl-7-(3-Piperidin-1-yl-propoxy)-1,2,3,4-tetrahydro-isoquinoline dihydrochloride] | – | 69% | – | – | – | – | 71.9 ± 3.3 h |
| – | – | 0.0014 µM | CCN(CC)CCCOc1ccc(C(C)N(C)CCN(C)C)cc1 (stereo not drawn) [Example 1] | – | – | – | – | – | – | – |
